What was measured:
Conditions in all cases: exposure time: 72 h
E13 [1] = patient-derived glioblastoma stem cells of classical subtype; test: surviving fraction (nuclei count normalised to DMSO); higher = more cells surviving (less toxic)
E21 [2] = patient-derived glioblastoma stem cells of mesenchymal subtype; test: as above
E28 [3] = patient-derived glioblastoma stem cells of classical subtype; test: as above
E31 [4] = patient-derived glioblastoma stem cells of proneural subtype; test: as above
E34 [5] = patient-derived glioblastoma stem cells of proneural subtype; test: as above
E57 [6] = patient-derived glioblastoma stem cells of mesenchymal subtype; test: as above
FT3469 [7] = normal neural stem cell line; test: as above
E13 [8] = test: phenotypic distance (Euclidean, principal components) from DMSO controls (arbitrary units); higher = stronger morphological change
E21 [9] = test: as above
E28 [10] = test: as above
E31 [11] = test: as above
E34 [12] = test: as above
E57 [13] = test: as above
FT3469 [14] = test: as above
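For phenotypic distance (Euclidean, principal components) from DMSO controls in this document: cell Painting imaging in 384-well plates, CellProfiler features reduced to at least 20 principal components, Euclidean distance versus same-plate DMSO vehicle wells (0.1% v/v), median over six images per well.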
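For surviving fraction (nuclei count normalised to DMSO) in this document: nuclei counted by high-content imaging of Hoechst-stained cells in laminin-coated 384-well plates, relative to 0.1% DMSO vehicle wells, with staurosporine as cell-death control.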

Oc1ccc(OCc2ccccc2)cc1 [Monobenzone]
surviving fraction (E13 [1]; 4.1 nM): 1.02
surviving fraction (E13 [1]; 12.3 nM): 1.11
surviving fraction (E13 [1]; 37 nM): 0.916
surviving fraction (E13 [1]; 111.1 nM): 1.04
surviving fraction (E13 [1]; 333.3 nM): 0.962
surviving fraction (E13 [1]; 1000 nM): 1.06
surviving fraction (E13 [1]; 3000 nM): 0.738
surviving fraction (E21 [2]; 4.1 nM): 1.01
surviving fraction (E21 [2]; 12.3 nM): 1.02
surviving fraction (E21 [2]; 37 nM): 0.985
surviving fraction (E21 [2]; 111.1 nM): 0.974
surviving fraction (E21 [2]; 333.3 nM): 1.01
surviving fraction (E21 [2]; 1000 nM): 0.951
surviving fraction (E21 [2]; 3000 nM): 0.932
surviving fraction (E28 [3]; 4.1 nM): 1.09
surviving fraction (E28 [3]; 12.3 nM): 1.17
surviving fraction (E28 [3]; 37 nM): 1.12
surviving fraction (E28 [3]; 111.1 nM): 1.02
surviving fraction (E28 [3]; 333.3 nM): 1.04
surviving fraction (E28 [3]; 1000 nM): 1.04
surviving fraction (E28 [3]; 3000 nM): 0.875
surviving fraction (E31 [4]; 4.1 nM): 1.17
surviving fraction (E31 [4]; 12.3 nM): 1.1
surviving fraction (E31 [4]; 37 nM): 1.24
surviving fraction (E31 [4]; 111.1 nM): 1.19
surviving fraction (E31 [4]; 333.3 nM): 1.04
surviving fraction (E31 [4]; 1000 nM): 1.06
surviving fraction (E31 [4]; 3000 nM): 0.603
surviving fraction (E34 [5]; 4.1 nM): 1.13
surviving fraction (E34 [5]; 12.3 nM): 0.972
surviving fraction (E34 [5]; 37 nM): 0.966
surviving fraction (E34 [5]; 111.1 nM): 1.13
surviving fraction (E34 [5]; 333.3 nM): 0.984
surviving fraction (E34 [5]; 1000 nM): 1.12
surviving fraction (E34 [5]; 3000 nM): 1.07
surviving fraction (E57 [6]; 4.1 nM): 1.07
surviving fraction (E57 [6]; 12.3 nM): 1.06
surviving fraction (E57 [6]; 37 nM): 1.14
surviving fraction (E57 [6]; 111.1 nM): 1.05
surviving fraction (E57 [6]; 333.3 nM): 0.979
surviving fraction (E57 [6]; 1000 nM): 0.963
surviving fraction (E57 [6]; 3000 nM): 0.842
surviving fraction (FT3469 [7]; 4.1 nM): 1.35
surviving fraction (FT3469 [7]; 12.3 nM): 1.12
surviving fraction (FT3469 [7]; 37 nM): 1.14
surviving fraction (FT3469 [7]; 111.1 nM): 0.963
surviving fraction (FT3469 [7]; 333.3 nM): 1.02
surviving fraction (FT3469 [7]; 1000 nM): 0.999
surviving fraction (FT3469 [7]; 3000 nM): 0.689
phenotypic distance (E13 [8]; 4.1 nM): 0.73
phenotypic distance (E13 [8]; 12.3 nM): 0.686
phenotypic distance (E13 [8]; 37 nM): 0.829
phenotypic distance (E13 [8]; 111.1 nM): 0.608
phenotypic distance (E13 [8]; 333.3 nM): 0.563
phenotypic distance (E13 [8]; 1000 nM): 0.694
phenotypic distance (E13 [8]; 3000 nM): 1.62
phenotypic distance (E21 [9]; 4.1 nM): 0.533
phenotypic distance (E21 [9]; 12.3 nM): 0.297
phenotypic distance (E21 [9]; 37 nM): 0.463
phenotypic distance (E21 [9]; 111.1 nM): 0.324
phenotypic distance (E21 [9]; 333.3 nM): 0.511
phenotypic distance (E21 [9]; 1000 nM): 0.562
phenotypic distance (E21 [9]; 3000 nM): 1.35
phenotypic distance (E28 [10]; 4.1 nM): 0.962
phenotypic distance (E28 [10]; 12.3 nM): 0.487
phenotypic distance (E28 [10]; 37 nM): 0.802
phenotypic distance (E28 [10]; 111.1 nM): 0.466
phenotypic distance (E28 [10]; 333.3 nM): 0.474
phenotypic distance (E28 [10]; 1000 nM): 0.692
phenotypic distance (E28 [10]; 3000 nM): 1.42
phenotypic distance (E31 [11]; 4.1 nM): 0.6
phenotypic distance (E31 [11]; 12.3 nM): 0.685
phenotypic distance (E31 [11]; 37 nM): 0.704
phenotypic distance (E31 [11]; 111.1 nM): 0.686
phenotypic distance (E31 [11]; 333.3 nM): 0.51
phenotypic distance (E31 [11]; 1000 nM): 0.575
phenotypic distance (E31 [11]; 3000 nM): 1.87
phenotypic distance (E34 [12]; 4.1 nM): 0.726
phenotypic distance (E34 [12]; 12.3 nM): 0.858
phenotypic distance (E34 [12]; 37 nM): 0.945
phenotypic distance (E34 [12]; 111.1 nM): 0.661
phenotypic distance (E34 [12]; 333.3 nM): 0.606
phenotypic distance (E34 [12]; 1000 nM): 0.28
phenotypic distance (E34 [12]; 3000 nM): 0.624
phenotypic distance (E57 [13]; 4.1 nM): 0.522
phenotypic distance (E57 [13]; 12.3 nM): 0.58
phenotypic distance (E57 [13]; 37 nM): 1.19
phenotypic distance (E57 [13]; 111.1 nM): 1.86
phenotypic distance (E57 [13]; 333.3 nM): 0.673
phenotypic distance (E57 [13]; 1000 nM): 0.736
phenotypic distance (E57 [13]; 3000 nM): 3.91
phenotypic distance (FT3469 [14]; 4.1 nM): 1.23
phenotypic distance (FT3469 [14]; 12.3 nM): 0.456
phenotypic distance (FT3469 [14]; 37 nM): 0.649
phenotypic distance (FT3469 [14]; 111.1 nM): 0.576
phenotypic distance (FT3469 [14]; 333.3 nM): 1.04
phenotypic distance (FT3469 [14]; 1000 nM): 0.884
phenotypic distance (FT3469 [14]; 3000 nM): 1.07
